From PubChem BioAssay (NCI)
Several values for one entry are separate records, joined by “and”; a condition that tells them apart may be missing. Equal entries are not always repeated.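 Where inhibition never reached the appropriate level, the endpoint shown equals the highest concentration tested. Otherwise, values were interpolated linearly from a five-concentration, 48-hour dose response in 96-well plates. GI50 is the concentration that inhibits growth by half. TGI is the concentration that stops growth completely.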

Experiments:
Test in all cases: NCI-60 cell line screen, 48 h
[1] = tested on: HL-60(TB) leukemia
[2] = tested on: NCI-H522 lung
[3] = tested on: NCI-H460 lung
[4] = tested on: DU-145 prostate
[5] = tested on: MDA-MB-231 breast
[6] = tested on: UACC-62 melanoma
[7] = tested on: SK-MEL-5 melanoma
[8] = tested on: SK-MEL-2 melanoma
[9] = tested on: OVCAR-5 ovarian
[10] = tested on: MDA-MB-435

| SMILES | GI50 [1] | TGI [1] | GI50 [2] | TGI [2] | GI50 [3] | TGI [3] | GI50 [4] [µM] | TGI [4] [µM] | GI50 [5] [µM] | TGI [5] [µM] | GI50 [6] | TGI [6] | GI50 [7] | TGI [7] | GI50 [8] [µM] | TGI [8] | GI50 [9] | TGI [9] | TGI [10] [µM] | GI50 [10] [µM] |
| --- | --- | --- | --- | --- | --- | --- | --- | --- | --- | --- | --- | --- | --- | --- | --- | --- | --- | --- | --- | --- |
| COc1ccc(/C(COc2c(-c3ccccc3)oc3ccccc3c2=O)=N\O)cc1 | 20 µM | > 50 µM | 11.1 µM | 28.5 µM | 12.3 µM | 39.6 µM | 22 | > 50 | 18.3 | > 50 | 12.7 µM | 43.5 µM | 9.61 µM | 20.1 µM | 9.82 | 45.5 µM | – | – | – | – |
| CCc1ccc(/C=C\c2cc(OC)c(OC)c(OC)c2)cc1 | 0.0172 µM | – | – | 0.0503 µM and 0.0384 µM | 0.0329 µM | – | – | – | – | 0.25 | – | – | – | 0.464 µM | 0.0258 | 0.66 µM and 0.203 µM | 16.7 µM | > 100 µM | 0.0066 | – |
| O=C(O)CNS(=O)(=O)c1ccc(NCc2ccccc2)cc1 | – | – | – | > 100 µM | – | > 100 µM | – | – | – | – | – | > 100 µM | – | > 100 µM | – | > 100 µM | – | > 100 µM | – | – |
| FC(F)(F)c1cccc(Nc2nccc(-c3cnn4nc(-c5ccccc5)ccc34)n2)c1 | > 25 µM | > 25 µM | 6.88 µM | > 18.5 µM | 5.23 µM | 11.1 µM | 7.1 | > 17.4 | 5.58 | > 20.9 | 14.4 µM | > 25 µM | 14.7 µM | > 25 µM | – | – | > 22.9 µM | > 25 µM | > 25 | 10.4 |
| CC[C@@H]1C(=O)N(C)c2cnc(Nc3ccc(C(=O)NC4CCN(C)CC4)cc3OC)nc2N1C1CCCC1 | 0.00231 µM and < 0.01 µM | 0.00631 µM and 0.0445 µM | 0.00294 µM and < 0.01 µM | < 0.0561 µM | 0.00386 µM and < 0.01 µM | > 10 µM and 6.64 µM | 0.00363 | > 10 | 0.00552 | 3.21 | 0.0101 µM and 0.0252 µM | > 4.41 µM and 4.21 µM | 0.00861 µM and 0.0123 µM | 0.205 µM and 0.274 µM | – | > 10 µM and 6.29 µM | 0.00408 µM and < 0.01 µM | > 10 µM and 11.8 µM | – | – |
| O=C(c1ccccc1)c1nnc(C(=O)c2ccccc2)nn1 | – | > 344 µM | – | > 344 µM | – | > 344 µM | – | – | – | – | – | > 344 µM | – | > 344 µM | – | > 344 µM | – | > 344 µM | – | – |
| CC(=O)CNC(=O)OC(C)(C)C | – | > 100 µM | – | > 100 µM | – | > 100 µM | – | – | – | – | – | > 100 µM | – | > 100 µM | – | > 100 µM | – | > 100 µM | – | – |
| Oc1c(CN2CCC(N3CCCCC3)CC2)cc(Cc2cc(CN3CCC(N4CCCCC4)CC3)c(O)c3ncccc23)c2cccnc12 | – | – | 1.39 µM | 3.63 µM | 0.287 µM | 11.5 µM | 0.871 | 16.1 | 0.329 | 14.4 | 0.609 µM | 5.17 µM | 1.15 µM | 2.59 µM | 2.21 | 7.04 µM | 2.74 µM | 20.3 µM | 6.41 | 1.77 |
| Brc1cccc(C=NC23CC4CC(CC(C4)C2)C3)c1 | – | > 100 µM | – | > 100 µM | – | > 100 µM | – | – | – | – | – | > 100 µM | – | > 100 µM | – | > 100 µM | – | > 100 µM | – | – |
| O=C1NC2OC(CO)C(O)C(O1)C2O (stereo unspecified) | – | > 100 µM | – | > 100 µM | – | > 100 µM | – | – | – | – | – | > 100 µM | – | > 100 µM | – | > 100 µM | – | > 100 µM | – | – |
| CCC(C)c1c(Cl)nc(Cl)nc1Cl (stereo unspecified) | – | > 100 µM | – | 2.51 µM | – | 34.2 µM | – | 30.4 | – | – | – | 52.8 µM | – | 13 µM | – | > 100 µM | – | 33.2 µM | 9.1 | – |
| [Cl-].[Dy+3].[O-]/N=C(\c1ccccc1)c1ccccn1.[O-]/N=C(\c1ccccc1)c1ccccn1.[O-]/N=C(\c1ccccc1)c1ccccn1 | 18.4 µM | 58.4 µM | 19.5 µM | 65.6 µM | 28.8 µM | > 100 µM | – | – | – | – | 32.5 µM | > 100 µM | 23.7 µM | 61.7 µM | 27.3 | 64.8 µM | 42.4 µM | > 100 µM | – | – |
| CC[C@]1(O)C[C@@H]2CN(CCc3c([nH]c4ccccc34)[C@@](C(=O)OC)(c3cc4c(cc3OC)N(C)[C@H]3[C@@](O)(C(=O)OC)[C@H](OC(C)=O)[C@]5(CC)C=CCN6CC[C@]43[C@@H]65)C2)C1 | < 0.01 µM | < 0.01 µM | < 0.01 µM | – | < 0.01 µM | 15.1 µM | – | – | < 0.01 | 11.2 | < 0.01 µM | 17.4 µM | < 0.01 µM | < 0.0385 µM | < 0.0149 | 20.2 µM | < 0.01 µM | 87.7 µM | < 0.01 | < 0.01 |
| COc1ccc(C2=CC3CCC2C3)cc1 (stereo unspecified) | – | > 100 µM | – | > 100 µM | – | > 100 µM | – | – | – | – | – | > 100 µM | – | > 100 µM | – | > 100 µM | – | > 100 µM | – | – |
| O=c1c2cc([N+](=O)[O-])ccc2sc2ccsc12 | – | > 100 µM | – | > 100 µM | – | > 100 µM | – | – | – | – | – | > 100 µM | – | > 100 µM | – | > 100 µM | – | > 100 µM | – | – |
| O/N=C/C1c2ccccc2-c2ccccc21 | – | 93.7 µM | – | 33.4 µM | – | 36 µM | – | 45.9 | – | 29 | – | 30.2 µM | – | 25.4 µM | – | 36.1 µM | – | – | 34.3 | – |
| Cc1ccc2c(c1)[n+]([O-])c(N)n[n+]2[O-] | – | > 100 µM | – | > 100 µM | – | > 100 µM | – | > 100 | – | > 100 | – | – | – | > 100 µM | – | > 100 µM | – | > 100 µM | > 100 | – |
| OCC(O)CC[CH2][Sn]([Br])([c]1ccccc1)[c]1ccccc1 (stereo unspecified) | 52 µM | > 100 µM | 13 µM | 92.1 µM | > 100 µM | > 100 µM | – | – | – | – | 65.8 µM | > 100 µM | > 100 µM | > 100 µM | > 100 | > 100 µM | > 100 µM | > 100 µM | – | – |
| COC(=O)/C=C/c1cc(OC)c(OC)c(OC)c1 | – | > 100 µM | – | > 100 µM | – | > 100 µM | – | – | – | – | – | > 100 µM | – | > 100 µM | – | > 100 µM | – | – | – | – |
| O=C1/C(=C/c2ccccc2)CNC/C1=C\c1ccccc1 | – | – | – | 2.66 µM | – | 3.08 µM | – | – | – | – | – | 3.69 µM | – | 4.07 µM | – | 9.18 µM | – | 6.21 µM | – | – |
